Results taken from ChEMBL document CHEMBL1201862, “PubChem BioAssay data set” (2004).
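Compound exposure: 48 hours, 5 concentrations, 96-well plates. Abbreviation: GI50, concentration required for 50% inhibition of growth.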 Activity calls are given as the source filed them. Cut-off read from the data, not from the text of the source: active = GI50 up to about 1.1 µM and inactive = higher. Numbered stars: 1 amine (or outer) side, 2 acyl side, 3 side chain; on linkers, the order of the positions; unused ones are H or OH. Bridge positions count the residues as written; N and C are the ends. Square brackets hold non-standard residues; d marks the D form. Peptide text beside a SMILES is read from it. X58 = COc1c(N[*:1])cccc1C(=O)O[C@H](C(=O)[C@H](C)C(=O)[*:2])C(C)C; X57 = CC(C)C[C@H](C(=O)[*:2])C(C)C(=O)C1CCCN1[*:1]; NMeY = CN[C@@H](Cc1ccc(O)cc1)C(=O)O; Lac = C[C@H](O)C(=O)O

Tests used:
Assay in all cases: growth of human tumour cells (NCI), 48 h
BT-549 = system: BT-549
NCI/ADR-RES = system: NCI/ADR-RES
DLD-1 = system: DLD-1
HOP-18 = system: HOP-18
M19-MEL = system: M19-MEL
SNB-78 = system: SNB-78
LXFL 529 = system: LXFL 529
XF498 = system: XF498

`O=C1c2c(Br)sc(Br)c2C(NC(=O)C(F)(F)F)C1O` (stereo not drawn) was tested, and the GI50 (BT-549) was 19.4 µM (inactive) and the GI50 (NCI/ADR-RES) was 29.1 µM (inactive).

`C/C(C=O)=C/[C@@]1(C)O[C@@H](C)[C@@](C)(O)[C@@H]1O` was tested, and the GI50 (NCI/ADR-RES) was 21.9 µM (inactive).

For `COC(=O)/C=C/c1ccc2c(c1)CC1(C2)Cc2cc3c(cc2C1=O)CCC3` (stereo not drawn), the GI50 (BT-549) was > 100 µM (inactive) and the GI50 (NCI/ADR-RES) was 42.5 µM (inactive).

`COc1ccc(/C(=C/n2ccnc2)C(O)c2ccc(OC)c(OC)c2)cc1OC` (stereo not drawn) was tested, and the GI50 (DLD-1) was > 100 µM (inactive), the GI50 (HOP-18) was > 100 µM (inactive) and the GI50 (M19-MEL) was > 100 µM (inactive).

With `NC(=O)c1nnc2cc(F)c(F)cc2c1N` the GI50 (BT-549) was 15.7 µM (inactive) and the GI50 (NCI/ADR-RES) was 27.6 µM (inactive).

With `CCOC(=O)c1c(-c2ccccc2)c(OC)cn1C` the GI50 (BT-549) was > 10 µM (inactive) and the GI50 (NCI/ADR-RES) was > 10 µM (inactive).

`C[C@H](C(O)CC(=O)C(C)(C)O)[C@H]1CC[C@@]2(C)[C@@H]3CC[C@H]4C(C)(C)[C@@H](OC5OC(COC6OC(CO)C(O)C(O)C6O)C(O)C(O)C5O)CC[C@]4(C)C3=CC[C@]12C` (stereo partly drawn) was tested, and the GI50 (BT-549) was > 100 µM (inactive).

`Cc1ccc2ccc(-c3ccccc3)c3c2c1C(=O)c1ccccc1C3=O` was tested, and the GI50 (SNB-78) was > 100 µM (inactive), the GI50 (LXFL 529) was > 100 µM (inactive) and the GI50 (DLD-1) was > 100 µM (inactive). The GI50 (HOP-18) was 54.6 µM (inactive), the GI50 (XF498) was 15.8 µM (inactive) and the GI50 (M19-MEL) was 76.2 µM (inactive).

In the case of `CC(=O)Nc1ccc(N2C(=O)/C(=C\c3cccc(Oc4ccccc4)c3)S(=O)(=O)C2c2ccccc2)cc1` (stereo not drawn), the GI50 (BT-549) is reported as > 100 µM (inactive) and the GI50 (NCI/ADR-RES) is reported as 37.2 µM (inactive).

In the case of `OB(O)c1ccccc1C#Cc1ccccc1B(O)O`, the GI50 (BT-549) is reported as 12.2 µM (inactive) and the GI50 (NCI/ADR-RES) is reported as 25.5 µM (inactive).

For `CN1C(c2ccccc2)CC(=O)C(N)C1c1ccccc1` (stereo not drawn), the GI50 (SNB-78) was 23.7 µM (inactive), the GI50 (LXFL 529) was 17.6 µM (inactive) and the GI50 (DLD-1) was 30.2 µM (inactive). The GI50 (HOP-18) was 37.4 µM (inactive), the GI50 (XF498) was 14.7 µM (inactive) and the GI50 (M19-MEL) was 22.7 µM (inactive).

With `Cn1c(-c2cccs2)cc(-c2cccs2)c1-c1ccsc1` the GI50 (BT-549) was > 100 µM (inactive) and the GI50 (NCI/ADR-RES) was > 100 µM (inactive).

`O=C1Nc2ccc(Cl)cc2C(=O)N2CCC[C@@H]12` was tested, and the GI50 (BT-549) was > 100 µM (inactive) and the GI50 (NCI/ADR-RES) was > 100 µM (inactive).

For `O=c1c(O)c(-c2ccccc2)oc2c(CP(=O)(O)O)cccc12`, the GI50 (BT-549) was > 100 µM (inactive).

In the case of `CSC1=NC=CCN1C`, the GI50 (LXFL 529) is reported as > 100 µM (inactive), the GI50 (DLD-1) is reported as > 100 µM (inactive) and the GI50 (HOP-18) is reported as > 100 µM (inactive). For the same molecule, the GI50 (M19-MEL) was > 100 µM (inactive).

In the case of `C/C=C1\CN2CCC34c5ccccc5N(C)C35OCC4(C(=O)OC)C1CC25` (stereo not drawn), the GI50 (BT-549) is reported as 34.3 µM (inactive).

With `N#Cc1ccccc1C#C/C=C\C#Cc1ccccn1` the GI50 (NCI/ADR-RES) was 16.6 µM (inactive).

In the case of `[N-]=[N+]=CC(=O)CCC(=O)N(c1ccccc1)c1ccccc1`, the GI50 (BT-549) is reported as > 10 µM (inactive).

`CC(C)(C)OC(=O)NC(CSCc1ccc(C(=O)c2ccccc2)cc1)C(=O)N1CCN(CCCCN2c3ccccc3Sc3cc(N=[N+]=[N-])ccc32)CC1` (stereo not drawn) was tested, and the GI50 (BT-549) was > 100 µM (inactive) and the GI50 (NCI/ADR-RES) was > 100 µM (inactive).

For `Cc1ccc(/C=C2\N=C(N3CCCCC3)NC2=O)cc1`, the GI50 (BT-549) was > 100 µM (inactive) and the GI50 (NCI/ADR-RES) was 70.8 µM (inactive).

In the case of `C=C1C(=O)O[C@@H]2[C@H]1C[C@@H](O)[C@H](C)[C@@](O)(C(=O)/C=C/C)[C@H]2OC(=O)C(C)CC` (stereo partly drawn), the GI50 (BT-549) is reported as 5.45 µM (inactive) and the GI50 (NCI/ADR-RES) is reported as 11 µM (inactive).

For `N#C/C=C\c1ccc(-c2cc(C(F)(F)F)cc(C(F)(F)F)c2)o1`, the GI50 (BT-549) was 36.7 µM (inactive) and the GI50 (NCI/ADR-RES) was 41.6 µM (inactive).

`c1ccc(CSC(SCc2ccccc2)c2ccc3c(c2)OCO3)cc1` was tested, and the GI50 (NCI/ADR-RES) was > 10 µM (inactive).

With `Clc1ccc(-c2nc3cc(Cl)ccc3[nH]2)cc1` the GI50 (BT-549) was 32.2 µM (inactive) and the GI50 (NCI/ADR-RES) was 19.9 µM (inactive).

`O=C1/C(=C/c2ccccc2)N=C(c2ccccc2)N1n1c(-c2ccccc2)nc2ccccc2c1=O` was tested, and the GI50 (BT-549) was 31.6 µM (inactive) and the GI50 (NCI/ADR-RES) was 63.8 µM (inactive).

With `COC(=O)C1=CC2CCCC1(O)C(C(C)=O)C2` (stereo not drawn) the GI50 (BT-549) was > 95.7 µM (inactive) and the GI50 (NCI/ADR-RES) was > 63.2 µM (inactive).

In the case of `COc1cc(CNC(=O)[C@H](Cc2ccc(O)cn2)NC(C)=O)cc(OC)c1`, the GI50 (BT-549) is reported as > 100 µM (inactive) and the GI50 (NCI/ADR-RES) is reported as > 100 µM (inactive).

`O=c1[nH]/c(=C/c2ccc(OCc3ccccc3)cn2)c(=O)[nH]/c1=C/c1ccc(O)cc1` was tested, and the GI50 (BT-549) was 2.49 µM (inactive) and the GI50 (NCI/ADR-RES) was 0.774 µM (active).

`COC1CCCc2c(OC(C)=O)ccc(OC(C)=O)c21` (stereo not drawn) was tested, and the GI50 (SNB-78) was 36 µM (inactive) and the GI50 (LXFL 529) was > 100 µM (inactive).

For `CCO[C@@]12CCC3CC4CC[C@@](OCC)(O1)C4C32` (stereo partly drawn), the GI50 (BT-549) was > 100 µM (inactive) and the GI50 (NCI/ADR-RES) was > 100 µM (inactive).

For `COC1C(O)C(C)OC(O[C@H]2CC[C@@]3(C)C(CC[C@@H]4[C@@H]3CC[C@]3(C)[C@@H](C(C)OC5OC(CO)C(O)C(O)C5O)CC[C@]43O)C2)C1O` (stereo partly drawn), the GI50 (NCI/ADR-RES) was > 25 µM (inactive).

With `O=C(O)Cc1cccc2c(=O)c3cccc([N+](=O)[O-])c3oc12` the GI50 (BT-549) was > 100 µM (inactive).

For `O=C1C2C3C=CC(C2C(=O)N1COP(=O)(O)O)C1C2C(=O)N(COP(=O)(O)O)C(=O)C2C31` (stereo not drawn), the GI50 (SNB-78) was > 100 µM (inactive), the GI50 (LXFL 529) was > 100 µM (inactive) and the GI50 (DLD-1) was > 49.2 µM (inactive). For the same molecule, the GI50 (HOP-18) was > 100 µM (inactive), the GI50 (XF498) was > 100 µM (inactive) and the GI50 (M19-MEL) was > 100 µM (inactive).

For `COC(=O)[C@]1(c2cc3ccccc3[nH]2)CC2CN(C(=O)OCc3ccccc3)C1C=C2OC` (stereo partly drawn), the GI50 (BT-549) was 31 µM (inactive) and the GI50 (NCI/ADR-RES) was 38.3 µM (inactive).

For `COc1ccc(C2Oc3cc(OC)c(O)c(C)c3[C@H]2C)cc1` (stereo partly drawn), the GI50 (SNB-78) was > 100 µM (inactive), the GI50 (LXFL 529) was 71.6 µM (inactive) and the GI50 (DLD-1) was > 100 µM (inactive). The GI50 (HOP-18) was 19 µM (inactive) and the GI50 (M19-MEL) was > 100 µM (inactive).

For `COc1ccc(-c2nnc3nc4ccccc4n3c2O)cc1`, the GI50 (BT-549) was > 100 µM (inactive) and the GI50 (NCI/ADR-RES) was > 100 µM (inactive).

In the case of `COc1ccc(C[C@H]2C(=O)O[C@H](C)[C@H](NC(=O)[C@@H](CC(C)C)C(C)C(=O)C3CCCN3C(=O)[C@H](C)O)C(=O)Nc3cccc(c3OC)C(=O)O[C@@H](C(C)C)C(=O)[C@H](C)C(=O)N[C@@H](CC(C)C)C(=O)N3CCC[C@H]3C(=O)N2C)cc1` (stereo partly drawn) (H-[Lac][X57]T[X58]LP[NMeY](Me); ester 3-C), the GI50 (BT-549) is reported as > 12.5 µM (inactive) and the GI50 (NCI/ADR-RES) is reported as > 12.5 µM (inactive).
